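Five compound concentrations were applied to cells in 96-well plates for 48 hours; endpoints were derived by simple linear interpolation of the resulting dose-response curve. Here, GI50 denotes the concentration required for 50% inhibition of growth. TGI: total growth inhibition.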
What was measured:
Test in all cases: NCI anticancer screen, dose series, 48 h
UACC-257 melanoma = tested on: UACC-257 melanoma
U251 CNS = tested on: U251 CNS
HT29 colon = tested on: HT29 colon
HS 578T breast = tested on: HS 578T breast
NCI-H522 lung = tested on: NCI-H522 lung
NCI-H23 lung = tested on: NCI-H23 lung
HCC-2998 colon = tested on: HCC-2998 colon
NCI-H460 lung = tested on: NCI-H460 lung
HOP-62 NSCLC = tested on: HOP-62 NSCLC
UACC-62 melanoma = tested on: UACC-62 melanoma

`COC(=O)[C@H](Cc1ccccc1)NC(=O)[C@@H](OC)[C@@H]1Cc2cc3cc(OC4CC(OC5CC(O)C(O)C(C)O5)C(O)C(C)O4)c(C)c(O)c3c(O)c2C(=O)[C@H]1OC1CC(OC2CC(OC3CC(C)(O)C(O)C(C)O3)C(O)C(C)O2)C(O)C(C)O1` (stereo partly drawn) was tested, and the GI50 (UACC-257 melanoma) was 0.0103 µM, the TGI (UACC-257 melanoma) was 2.54 µM and the GI50 (U251 CNS) was 0.0257 µM. The TGI (U251 CNS) was greater than 14.3 µM, the GI50 (HT29 colon) was 0.0268 µM and the TGI (HT29 colon) was greater than 14.3 µM. For the same molecule, the GI50 (HS 578T breast) was 0.0131 µM, the TGI (HS 578T breast) was 0.348 µM and the GI50 (NCI-H522 lung) was 0.0064 µM. For the same molecule, the TGI (NCI-H522 lung) was 1.72 µM, the GI50 (NCI-H23 lung) was 0.0106 µM and the TGI (NCI-H23 lung) was 0.0821 µM. The GI50 (HCC-2998 colon) was 0.0158 µM, the TGI (HCC-2998 colon) was 0.0478 µM and the GI50 (NCI-H460 lung) was 0.0197 µM. For the same molecule, the TGI (NCI-H460 lung) was greater than 14.3 µM, the GI50 (HOP-62 NSCLC) was 0.0147 µM and the TGI (HOP-62 NSCLC) was 11.4 µM. The GI50 (UACC-62 melanoma) was 0.00473 µM and the TGI (UACC-62 melanoma) was 0.0209 µM.
In the case of `COc1ccc(C(=O)N/N=C/c2ccc(O)cc2O)cc1Nc1ccnc(C(F)(F)F)c1`, the GI50 (UACC-257 melanoma) was 1.69 µM, the TGI (UACC-257 melanoma) was 16.9 µM and the GI50 (U251 CNS) was 0.401 µM. For the same molecule, the TGI (U251 CNS) was 29.4 µM, the GI50 (HT29 colon) was 3.6 µM and the TGI (HT29 colon) was greater than 69.2 µM. For the same molecule, the GI50 (HS 578T breast) was 1.01 µM, the TGI (HS 578T breast) was 15.3 µM and the GI50 (NCI-H522 lung) was 3.22 µM. It also gave a TGI (NCI-H522 lung) of 27.3 µM, a GI50 (NCI-H23 lung) of 2.39 µM and a TGI (NCI-H23 lung) of 20.3 µM. It also gave a GI50 (HCC-2998 colon) of 0.513 µM, a TGI (HCC-2998 colon) of 22.1 µM and a GI50 (NCI-H460 lung) of 3.14 µM. It also gave a TGI (NCI-H460 lung) of 12.7 µM, a GI50 (HOP-62 NSCLC) of 0.495 µM and a TGI (HOP-62 NSCLC) of 12.7 µM. The GI50 (UACC-62 melanoma) was 0.448 µM and the TGI (UACC-62 melanoma) was 11.4 µM.
Work on `C#CC#CC#CC#CC#CC#CC#CC#CCC1OC[C@H](COC(=O)O[C@@H](C(=O)O[C@H]2C[C@@]3(O)[C@@H](OC(=O)c4ccccc4)[C@@H]4[C@]5(OC(C)=O)CO[C@@H]5C[C@H](O)[C@@]4(C)C(=O)[C@H](OC(C)=O)C(=C2C)C3(C)C)[C@@H](NC(=O)c2ccccc2)c2ccccc2)O1` (stereo partly drawn) yielded a GI50 (UACC-257 melanoma) greater than 8.84 µM, a TGI (UACC-257 melanoma) greater than 33.3 µM and a GI50 (U251 CNS) of 0.394 µM. It also gave a TGI (U251 CNS) greater than 33.3 µM, a GI50 (HT29 colon) of 0.114 µM and a TGI (HT29 colon) greater than 33.3 µM. For the same molecule, the GI50 (HS 578T breast) was 0.297 µM, the TGI (HS 578T breast) was greater than 17.3 µM and the GI50 (NCI-H522 lung) was 0.648 µM. It also gave a TGI (NCI-H522 lung) greater than 33.3 µM, a GI50 (NCI-H23 lung) of 0.888 µM and a TGI (NCI-H23 lung) greater than 33.3 µM. It also gave a GI50 (HCC-2998 colon) of 0.52 µM, a TGI (HCC-2998 colon) greater than 33.3 µM and a GI50 (NCI-H460 lung) of 0.123 µM. For the same molecule, the TGI (NCI-H460 lung) was greater than 33.3 µM, the GI50 (HOP-62 NSCLC) was 1.37 µM and the TGI (HOP-62 NSCLC) was greater than 33.3 µM. It also gave a GI50 (UACC-62 melanoma) of 0.907 µM and a TGI (UACC-62 melanoma) greater than 33.3 µM.
In the case of `COc1ccc2c(c1)C(=O)c1c-2n(CCCCl)c(=O)c2cc(N(C)C)ccc12`, the GI50 (UACC-257 melanoma) was 43 µM, the TGI (UACC-257 melanoma) was greater than 100 µM and the GI50 (U251 CNS) was 23.1 µM. The TGI (U251 CNS) was 84.2 µM, the GI50 (HT29 colon) was greater than 100 µM and the TGI (HT29 colon) was greater than 100 µM. The GI50 (HS 578T breast) was 26.8 µM, the TGI (HS 578T breast) was greater than 100 µM and the GI50 (NCI-H522 lung) was 18.9 µM. For the same molecule, the TGI (NCI-H522 lung) was greater than 100 µM, the GI50 (NCI-H23 lung) was greater than 100 µM and the TGI (NCI-H23 lung) was greater than 100 µM. The GI50 (HCC-2998 colon) was greater than 100 µM, the TGI (HCC-2998 colon) was greater than 100 µM and the GI50 (NCI-H460 lung) was 73 µM. The TGI (NCI-H460 lung) was greater than 100 µM, the GI50 (HOP-62 NSCLC) was 26.6 µM and the TGI (HOP-62 NSCLC) was 69 µM. It also gave a GI50 (UACC-62 melanoma) of 41 µM and a TGI (UACC-62 melanoma) greater than 100 µM.
Molecule `COc1cccc(C2C(C#N)=C(N)Oc3cc(OC)ccc32)c1` (stereo not drawn) has a GI50 (UACC-257 melanoma) of 1.1 µM, a TGI (UACC-257 melanoma) greater than 83.9 µM and a GI50 (U251 CNS) of 0.0419 µM. It also gave a TGI (U251 CNS) greater than 100 µM, a GI50 (HT29 colon) of 0.0416 µM and a TGI (HT29 colon) of 4.96 µM. It also gave a GI50 (HS 578T breast) of 0.0279 µM, a TGI (HS 578T breast) of 10.3 µM and a GI50 (NCI-H522 lung) of less than 0.0105 µM. The TGI (NCI-H522 lung) was 0.0556 µM, the GI50 (NCI-H23 lung) was 0.0415 µM and the TGI (NCI-H23 lung) was greater than 33 µM. The GI50 (HCC-2998 colon) was 0.0594 µM, the GI50 (NCI-H460 lung) was 0.0353 µM and the TGI (NCI-H460 lung) was 3.64 µM. For the same molecule, the GI50 (HOP-62 NSCLC) was 0.0418 µM, the TGI (HOP-62 NSCLC) was greater than 76.6 µM and the GI50 (UACC-62 melanoma) was 0.0682 µM. For the same molecule, the TGI (UACC-62 melanoma) was greater than 94.9 µM.
In the case of `Clc1ccc(-c2cn(-c3ccccc3)c(-c3ccccc3)n2)c(Cl)c1`, the GI50 (UACC-257 melanoma) was greater than 22.8 µM, the TGI (UACC-257 melanoma) was greater than 50 µM and the GI50 (U251 CNS) was 1.25 µM. For the same molecule, the TGI (U251 CNS) was 3.83 µM, the GI50 (HT29 colon) was 1.79 µM and the TGI (HT29 colon) was greater than 50 µM. The GI50 (HS 578T breast) was 1.27 µM, the TGI (HS 578T breast) was 6.02 µM and the GI50 (NCI-H522 lung) was greater than 24.2 µM. It also gave a TGI (NCI-H522 lung) greater than 50 µM, a GI50 (NCI-H23 lung) greater than 16.2 µM and a TGI (NCI-H23 lung) greater than 50 µM. For the same molecule, the TGI (HCC-2998 colon) was greater than 25.5 µM, the GI50 (NCI-H460 lung) was 1.09 µM and the TGI (NCI-H460 lung) was 2.39 µM. For the same molecule, the GI50 (HOP-62 NSCLC) was 1.36 µM, the TGI (HOP-62 NSCLC) was 5.02 µM and the GI50 (UACC-62 melanoma) was greater than 20.2 µM. The TGI (UACC-62 melanoma) was greater than 50 µM.
For `Oc1ccc(-c2nc3ccc4[nH]ncc4c3c3c2CCCC3)c2cccnc12`, the GI50 (UACC-257 melanoma) was 0.888 µM, the TGI (UACC-257 melanoma) was 3.68 µM and the GI50 (U251 CNS) was 0.143 µM. For the same molecule, the TGI (U251 CNS) was 5.97 µM, the GI50 (HT29 colon) was 1.09 µM and the TGI (HT29 colon) was 6.73 µM. It also gave a GI50 (HS 578T breast) of 0.163 µM, a TGI (HS 578T breast) of 2.67 µM and a GI50 (NCI-H522 lung) of 0.119 µM. The TGI (NCI-H522 lung) was 5.2 µM, the GI50 (NCI-H23 lung) was 0.158 µM and the TGI (NCI-H23 lung) was 1.66 µM. The GI50 (HCC-2998 colon) was 0.319 µM, the TGI (HCC-2998 colon) was 5.45 µM and the GI50 (NCI-H460 lung) was 0.122 µM. The TGI (NCI-H460 lung) was 0.863 µM, the GI50 (HOP-62 NSCLC) was 0.16 µM and the TGI (HOP-62 NSCLC) was 1.71 µM. The GI50 (UACC-62 melanoma) was 0.512 µM and the TGI (UACC-62 melanoma) was 1.97 µM.
`CCc1nc(N)nc(N)c1-c1ccc(Cl)c(N=NN(C)C)c1` was tested, and the TGI (UACC-257 melanoma) was greater than 100 µM, the TGI (U251 CNS) was greater than 100 µM and the TGI (HT29 colon) was greater than 91.4 µM. The TGI (HS 578T breast) was greater than 100 µM, the TGI (NCI-H522 lung) was 99.6 µM and the TGI (NCI-H23 lung) was greater than 100 µM. The TGI (HCC-2998 colon) was 62.9 µM, the TGI (NCI-H460 lung) was 40.5 µM and the TGI (HOP-62 NSCLC) was greater than 73.9 µM. For the same molecule, the TGI (UACC-62 melanoma) was 76.8 µM.
`C=C1C(=O)O[C@H]2[C@H]1CC/C(COC(=O)C(=O)c1cn(C)c3ccc(OC)cc13)=C\CC[C@@]1(C)O[C@@H]21` was tested, and the GI50 (UACC-257 melanoma) was 4.82 µM, the TGI (UACC-257 melanoma) was 9.73 µM and the GI50 (U251 CNS) was 6.58 µM. The TGI (U251 CNS) was 10.1 µM, the GI50 (HT29 colon) was 2.23 µM and the TGI (HT29 colon) was 5.4 µM. It also gave a GI50 (HS 578T breast) of 11.3 µM, a TGI (HS 578T breast) of 50.4 µM and a GI50 (NCI-H522 lung) of 5.02 µM. It also gave a TGI (NCI-H522 lung) of 9.16 µM, a GI50 (NCI-H23 lung) of 6.44 µM and a TGI (NCI-H23 lung) of 12.4 µM. For the same molecule, the GI50 (HCC-2998 colon) was 5.14 µM, the TGI (HCC-2998 colon) was 9.72 µM and the GI50 (NCI-H460 lung) was 7.2 µM. The TGI (NCI-H460 lung) was 14.4 µM, the GI50 (HOP-62 NSCLC) was 6.46 µM and the TGI (HOP-62 NSCLC) was 11.9 µM. The GI50 (UACC-62 melanoma) was 2.8 µM and the TGI (UACC-62 melanoma) was 7.08 µM.
